Data published in article PMC4579598 (2015).

What was measured:
[1] = tested on: ss17 (DNA, single strand) CCAGTTCGTAGTAACCC; assay: fluorescence emission titration; conditions: 100 mM K+; 10 mM lithium cacodylate pH 7.3, 2 μM compound; per five-base motif; log Ka 5.7-6.1 over all DNAs
[2] = tested on: ds17 (DNA, duplex) CCAGTTCGTAGTAACCC/GGGTTACTACGAACTGG; assay: fluorescence emission titration; conditions: 100 mM K+; 10 mM lithium cacodylate pH 7.3, 2 μM compound; per binding motif; log Ka 5.7-6.1 over all DNAs
[3] = tested on: TBA (DNA, G4) GGTTGGTGTGGTTGG; assay: fluorescence emission titration; conditions: 100 mM K+; 10 mM lithium cacodylate pH 7.3, 2 μM compound; log Ka 5.7-6.1 over all DNAs
[4] = tested on: myc2345 (DNA, G4) TGAGGGTGGGGAGGGTGGGGAA; assay: fluorescence emission titration; conditions: 100 mM K+; 10 mM lithium cacodylate pH 7.3, 2 μM compound; per binding motif; log Ka 5.7-6.1 over all DNAs
[5] = tested on: PDGF-A (DNA, G4) GGAGGCGGGGGGGGGGGGGCGGGGGCGGGGGCGGGGGAGGGGCGCGGC; assay: fluorescence emission titration; conditions: 100 mM K+ (DNA annealed in 25 mM K+); 10 mM lithium cacodylate pH 7.3, 2 μM compound; per binding motif; log Ka 5.7-6.1 over all DNAs
[6] = tested on: myc2345 (DNA, G4) TGAGGGTGGGGAGGGTGGGGAA; assay: displacement of DAOTA-M2 followed by fluorescence lifetime (FLIM); conditions: 100 mM K+; 10 mM lithium cacodylate pH 7.3; DAOTA-M2 displaced, duplex DNA present

Structure (SMILES)	binding [1]	binding [2]	binding [3]	binding [4]	Ka [5] [M⁻¹]	binding [6]
c1cc2oc3cccc4c3[c+]3c2c(c1)n(CCN1CCOCC1)c1cccc(c13)n4CCN1CCOCC1	yes	yes	yes	yes	761000	
NCCOc1cc(C(=O)Nc2cc(OCCN)c3ccccc3n2)nc(C(=O)Nc2cc(OCCN)c3ccccc3n2)c1						yes
